According to PMC7614683, “A small molecule PI3Kα activator for cardioprotection and neuroregeneration” (Nature, 2023):

Molecular target: T1, PI3Kα E545K mutant (Homo sapiens, UniProt P42336, E545K)
T1 construct: Full-length human p110α was expressed either in a complex with full-length human p85α (for HTS, biochemistry and HDX-MS); 6xHis tag followed by TEV protease site (N); host or cells: Sf9, baculovirus
Test: ADP-Glo catalytic activity, oncogenic mutant E545K
Format: biochemical
Experimental: Expression and purification of wild-type p110α (Cambridge MRC Laboratory for Molecular Biology (LMB-MRC) plasmid number OP831) in a complex with full-length p85α (LMB-MRC plasmid OP809) was performed as described. The oncogenic mutants G106V (LMB-MRC plasmid JB35), N345K (LMB-MRC plasmid OP661) and E545K (LMB-MRC plasmid OP663) were also purified using this protocol. Briefly, 10 litres of Spodoptera frugiperda (Sf9) cell culture at a density of 1.0 x 10^6 cells/ml were co-infected with a p85α-encoding virus [LMB-MRC plasmid OP809]. and a virus encoding p110α with an N-terminal 6xHis tag followed by a tobacco etch virus (TEV) protease site [LMB-MRC plasmid OP831]. After a 48 h infection at 27°C, cells were harvested and washed with PBS. […]
For characterisation of the effects of 1938 on in vitro PI3K enzymology, all reactions were performed at room temperature with 384 white-polystyrene plates (Corning #3574). […] Data was expressed as velocity (nmol of ADP generated/nmol of enzyme/sec). […] Luminescence was read using a PHERAstar® plate reader with software version 5.41, and analyses were performed using GraphPad Prism 8/9.

T1 sequence (P42336 whole entry E545K): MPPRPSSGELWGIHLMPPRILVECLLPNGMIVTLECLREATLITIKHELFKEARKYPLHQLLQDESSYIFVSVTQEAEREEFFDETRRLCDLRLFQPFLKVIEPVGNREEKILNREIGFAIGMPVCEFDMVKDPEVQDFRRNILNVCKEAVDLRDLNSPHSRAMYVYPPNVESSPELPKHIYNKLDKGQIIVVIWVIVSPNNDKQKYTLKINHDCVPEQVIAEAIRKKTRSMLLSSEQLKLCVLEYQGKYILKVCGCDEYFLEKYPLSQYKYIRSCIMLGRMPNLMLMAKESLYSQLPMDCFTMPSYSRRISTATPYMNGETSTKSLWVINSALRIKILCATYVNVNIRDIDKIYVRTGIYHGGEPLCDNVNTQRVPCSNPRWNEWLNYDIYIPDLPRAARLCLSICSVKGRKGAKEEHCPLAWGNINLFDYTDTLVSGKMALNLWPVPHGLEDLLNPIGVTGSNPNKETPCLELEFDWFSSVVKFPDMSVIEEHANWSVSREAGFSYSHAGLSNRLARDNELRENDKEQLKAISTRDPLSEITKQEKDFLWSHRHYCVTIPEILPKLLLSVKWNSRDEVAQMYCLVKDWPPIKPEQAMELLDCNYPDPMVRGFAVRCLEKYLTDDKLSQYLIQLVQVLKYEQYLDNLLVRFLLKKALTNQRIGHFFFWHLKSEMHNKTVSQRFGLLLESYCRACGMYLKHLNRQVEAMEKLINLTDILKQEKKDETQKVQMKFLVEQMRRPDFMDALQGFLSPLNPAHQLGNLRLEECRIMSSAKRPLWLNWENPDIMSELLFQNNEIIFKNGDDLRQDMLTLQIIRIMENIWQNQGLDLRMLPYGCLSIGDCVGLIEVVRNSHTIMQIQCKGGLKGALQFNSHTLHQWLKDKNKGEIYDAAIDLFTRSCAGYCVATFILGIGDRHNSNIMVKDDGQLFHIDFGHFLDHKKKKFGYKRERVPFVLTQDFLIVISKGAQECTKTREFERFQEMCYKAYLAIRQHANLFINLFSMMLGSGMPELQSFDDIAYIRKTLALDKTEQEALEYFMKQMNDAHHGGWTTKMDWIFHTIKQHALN
T1 sequence (P27986 whole entry partner): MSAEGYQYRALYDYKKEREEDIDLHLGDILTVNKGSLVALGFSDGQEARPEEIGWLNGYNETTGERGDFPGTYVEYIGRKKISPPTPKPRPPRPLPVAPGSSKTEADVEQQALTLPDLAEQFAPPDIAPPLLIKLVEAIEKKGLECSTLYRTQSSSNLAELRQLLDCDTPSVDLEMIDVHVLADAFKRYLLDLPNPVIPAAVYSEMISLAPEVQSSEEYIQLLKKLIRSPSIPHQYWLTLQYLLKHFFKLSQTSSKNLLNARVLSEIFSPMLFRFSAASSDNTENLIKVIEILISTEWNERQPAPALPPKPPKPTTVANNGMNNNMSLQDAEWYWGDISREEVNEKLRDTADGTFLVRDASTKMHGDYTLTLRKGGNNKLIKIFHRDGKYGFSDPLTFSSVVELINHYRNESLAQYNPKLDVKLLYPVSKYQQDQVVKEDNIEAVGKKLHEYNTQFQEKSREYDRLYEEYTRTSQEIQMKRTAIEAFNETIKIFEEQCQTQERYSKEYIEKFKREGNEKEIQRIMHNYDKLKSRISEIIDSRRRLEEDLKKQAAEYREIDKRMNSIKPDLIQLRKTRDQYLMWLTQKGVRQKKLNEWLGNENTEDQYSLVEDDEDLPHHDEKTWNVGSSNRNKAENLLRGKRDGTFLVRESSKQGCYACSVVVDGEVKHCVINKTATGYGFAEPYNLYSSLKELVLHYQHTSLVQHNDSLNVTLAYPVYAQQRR

## CCN1CCN(c2ccc(Nc3cc(Nc4cccc5c4N(C(C)=O)CC5)ccn3)cc2)CC1 [Compound 1938]
  activation of E545K mutant: could be further activated by 1938
